Measurements as given in PMC11303640, “ALK5/VEGFR2 dual inhibitor TU2218 alone or in combination with immune checkpoint inhibitors enhances immune-mediated antitumor effects” (Cancer Immunology, Immunotherapy : CII, 2024).

Biological target: T1, VEGFR2 (Homo sapiens, UniProt P35968)
T1 construct: gene KDR
Test: kinase enzyme assay (Reaction Biology), 10-point dose response, […] ATP
Assay type: biochemical

T1 sequence (P35968 20-1356): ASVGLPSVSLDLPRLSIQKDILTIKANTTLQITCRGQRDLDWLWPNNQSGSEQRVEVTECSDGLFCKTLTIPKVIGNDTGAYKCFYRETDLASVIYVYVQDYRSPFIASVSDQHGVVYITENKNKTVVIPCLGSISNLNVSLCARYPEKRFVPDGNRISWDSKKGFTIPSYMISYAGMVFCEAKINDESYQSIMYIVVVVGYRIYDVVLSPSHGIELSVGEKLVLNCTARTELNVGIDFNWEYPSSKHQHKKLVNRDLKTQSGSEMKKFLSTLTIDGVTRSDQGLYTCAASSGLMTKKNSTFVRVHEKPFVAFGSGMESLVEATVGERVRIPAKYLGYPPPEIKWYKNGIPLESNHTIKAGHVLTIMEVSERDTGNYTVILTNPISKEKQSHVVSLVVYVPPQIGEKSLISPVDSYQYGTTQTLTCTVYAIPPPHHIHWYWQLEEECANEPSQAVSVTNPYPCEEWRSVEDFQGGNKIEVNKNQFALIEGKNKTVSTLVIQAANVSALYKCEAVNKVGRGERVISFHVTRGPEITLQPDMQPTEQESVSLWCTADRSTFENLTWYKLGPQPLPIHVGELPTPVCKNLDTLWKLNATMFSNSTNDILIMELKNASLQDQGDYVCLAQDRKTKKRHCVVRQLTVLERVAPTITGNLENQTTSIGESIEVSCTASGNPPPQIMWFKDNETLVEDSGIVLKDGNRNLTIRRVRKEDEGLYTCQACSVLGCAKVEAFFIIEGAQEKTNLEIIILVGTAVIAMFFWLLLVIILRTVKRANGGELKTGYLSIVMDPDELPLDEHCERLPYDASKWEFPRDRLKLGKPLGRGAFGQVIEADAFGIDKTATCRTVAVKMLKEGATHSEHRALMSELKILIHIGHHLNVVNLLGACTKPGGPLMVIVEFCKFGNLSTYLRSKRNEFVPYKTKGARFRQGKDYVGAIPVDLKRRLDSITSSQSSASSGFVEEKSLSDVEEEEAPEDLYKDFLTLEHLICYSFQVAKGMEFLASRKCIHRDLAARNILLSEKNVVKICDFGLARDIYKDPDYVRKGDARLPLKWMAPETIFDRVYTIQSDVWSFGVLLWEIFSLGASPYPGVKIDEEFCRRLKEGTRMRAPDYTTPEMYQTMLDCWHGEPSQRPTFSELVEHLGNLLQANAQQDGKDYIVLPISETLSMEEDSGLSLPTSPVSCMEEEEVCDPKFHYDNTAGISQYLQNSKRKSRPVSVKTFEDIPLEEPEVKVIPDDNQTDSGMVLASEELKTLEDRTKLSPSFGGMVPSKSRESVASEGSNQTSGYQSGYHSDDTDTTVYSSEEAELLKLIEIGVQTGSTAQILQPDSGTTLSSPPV

**Q.** With `Cc1cccc(-c2nc3n(c2-c2ccc4ncnn4c2)CCN3)n1` [TU2218] as the compound, how does the IC50 read?
**A.** Its IC50 is 4.9 nM.
